Key:
Rev-Erb alpha = biological target: T1, Rev-Erb alpha (Homo sapiens, UniProt P20393); experiment: M2H (mammalian two-hybrid) cellular activation assay of Rev-Erb alpha; type: cell-based; settings: M2H assay, HEK293 cells; for EC50: Gal4-Rev-Erb alpha / VP16-NCoR, luciferase reporter; for Emax: relative to DMSO, at the tested dose, read-out: TOP activation
T1 sequence (P20393 284-614 limits assumed): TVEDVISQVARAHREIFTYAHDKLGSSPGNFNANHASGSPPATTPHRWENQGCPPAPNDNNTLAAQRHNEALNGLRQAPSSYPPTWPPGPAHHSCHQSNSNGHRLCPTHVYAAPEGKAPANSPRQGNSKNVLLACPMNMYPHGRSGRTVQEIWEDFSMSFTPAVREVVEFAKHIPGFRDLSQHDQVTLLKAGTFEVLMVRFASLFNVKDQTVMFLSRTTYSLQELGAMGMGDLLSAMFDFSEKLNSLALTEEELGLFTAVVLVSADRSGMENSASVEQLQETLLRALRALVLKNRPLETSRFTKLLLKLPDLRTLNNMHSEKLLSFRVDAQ
How it was run: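 Six-point dose-response, 18 h, 37 °C, serum-free, in HEK293 cells carrying a Gal4-RE luciferase reporter with Gal4-Rev-Erb alpha or beta plus VP16-NCoR (corepressor interaction readout). EC50 and TOP activation (%) derived from luminescence across four experiments.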

Row | EC50 (Rev-Erb alpha) [µM] | melting point [°C] | Emax (Rev-Erb alpha) [%] | SMILES
1 | 1 to 6 | 173 to 175 |  | Cc1cc2nnc(C(F)(F)F)n2nc1Oc1cc(C(F)(F)F)ccc1-c1cccnc1 [Cpd.5-33, 7-methyl-6-(2-(pyridin-3-yl)-5-(trifluoromethyl)phenoxy)-3-(trifluoromethyl)-[1,2,4]triazolo[4,3-b]pyridazine]
2 | 0.1 to 1 | 195 to 197 |  | Cc1ccc2c(c1)c(Oc1cc(C(F)(F)F)ccc1-c1ccccc1)nn1c(Cl)nnc21 [Cpd.5-10, 3-chloro-6-(4-trifluoromethyl-biphenyl-2-yloxy)-8-methyl-[1,2,4]triazolo[3,4-a]phthalazine]
3 | 1 to 6 | 163 to 165 |  | CCC(=O)Nc1ccc(Oc2ccc3nnc(Cl)n3n2)c(-c2ccccc2)c1 [Cpd.4-191, 3-chloro-6-(5-ethylcarbonylamino-biphenyl-2-yloxy)-[1,2,4]triazolo[4,3-b]pyridazine]
4 | > 6 | 230 to 234 | > 130 | Cc1cc(Oc2cc(C(F)(F)F)ccc2-c2cncnc2)nn2cnnc12 [Cpd.5-46, 8-methyl-6-(2-(pyrimidin-5-yl)-5-(trifluoromethyl)phenoxy)-[1,2,4]triazolo[4,3-b]pyridazine]
5 | 1 to 6 | 139 to 141 |  | COc1nccc(C)c1-c1ccc(C(F)(F)F)cc1Oc1cc(C)c2nnc(Cl)n2n1 [Cpd.5-39, 3-chloro-8-methyl-6-((2-(2-methoxy-4-methylpyridin-3-yl))-5-(trifluoromethyl)phenoxy)-[1,2,4]triazolo[4,3-b]pyridazine]
6 | 1 to 6 | 161 to 162 |  | COc1nccc(C)c1-c1ccc(C(F)(F)F)cc1Oc1nn2c(Cl)nnc2cc1C [Cpd.5-40, 3-chloro-7-methyl-6-((2-(2-methoxy-4-methylpyridin-3-yl))-5-(trifluoromethyl)phenoxy)-[1,2,4]triazolo[4,3-b]pyridazine]
7 | 0.1 to 1 | 163 to 165 |  | Cc1cc2nnc(Cl)n2nc1Oc1cc(C(F)(F)F)ccc1-c1ccccc1 [Cpd.5-7, 3-chloro-7-methyl-6-(4-trifluoromethyl-biphenyl-2-yloxy)-[1,2,4]triazolo[4,3-b]pyridazine]
8 | < 0.1 | 169 to 172 |  | Cc1cc(Oc2cc(C(F)(F)F)ccc2-c2ccccc2)nn2c(Cl)nnc12 [Cpd.5-6, 3-chloro-8-methyl-6-(4-trifluoromethyl-biphenyl-2-yloxy)-[1,2,4]triazolo[4,3-b]pyridazine]
9 | 1 to 6 | 200 to 202 |  | Cc1ncc(-c2ccc(C(F)(F)F)cc2Oc2cc(C)c3nnc(Cl)n3n2)cn1 [Cpd.5-37, 3-chloro-8-methyl-6-((2-(2-methylpyrimidin-5-yl))-5-(trifluoromethyl)phenoxy)-[1,2,4]triazolo[4,3-b]pyridazine]
10 | 0.1 to 1 | 252 to 253 |  | Clc1ccc(Oc2nn3c(Cl)nnc3c3ccccc23)c(-c2cncnc2)c1 [Cpd.5-60, 3-chloro-6-(4-chloro-2-(pyrimidin-5-yl)phenoxy)-[1,2,4]triazolo[3,4-a]phthalazine]
11 | > 6 | 152 to 155 | > 130 | Clc1ccc(Oc2ccc3nnc(Cl)n3n2)c(-c2cncnc2)c1 [Cpd.4-194, 3-chloro-6-(4-chloro-2-(pyrimidin-5-yl)phenoxy)-[1,2,4]triazolo[4,3-b]pyridazine]
12 | 1 to 6 | 197 to 200 |  | FC(F)(F)c1ccc(-c2cncnc2)c(Oc2nn3c(C(F)(F)F)nnc3c3ccccc23)c1 [Cpd.5-62, 6-(2-(pyrimidin-5-yl)-5-(trifluoromethyl)phenoxy)-3-(trifluoromethyl)-[1,2,4]triazolo[3,4-a]phthalazine]
13 | 1 to 6 | 220 to 230 |  | FC(F)(F)c1ccc(-c2cncnc2)c(Oc2nn3cnnc3c3ccccc23)c1 [Cpd.5-64, 6-(2-(pyrimidin-5-yl)-5-(trifluoromethyl)phenoxy)-[1,2,4]triazolo[3,4-a]phthalazine]

More lines, now with the values behind:

Row | SMILES | EC50 (Rev-Erb alpha) [µM] | melting point [°C] | Emax (Rev-Erb alpha) [%]
14 | Fc1ccccc1-c1ccccc1Oc1ccc2nnc(Cl)n2n1 [Cpd.4-17, 6-(2′-fluoro-biphenyl-2-yloxy)-3-chloro-[1,2,4]triazolo[4,3-b]pyridazine] | 0.1 to 1 | 95.9 | 
15 | Cc1ccc(Oc2ccc3nnc(Cl)n3n2)c(-c2ccccc2)c1 [Cpd.4-27, 6-(5-methyl-biphenyl-2-yloxy)-3-chloro-[1,2,4]triazolo[4,3-b]pyridazine] | < 0.1 | 144.5 | 
16 | Oc1cccc(-c2cc(F)c(F)cc2Oc2ccc3nnc(C(F)(F)F)n3n2)c1 [Cpd.4-151, 3-(trifluoromethyl)-6-(4,5-difluoro-3′-hydroxybiphenyl-2-yloxy)-[1,2,4]triazolo[4,3-b]pyridazine] | 1 to 6 | 193 to 195 | 
17 | Oc1ccc(Oc2ccc3nnc(Cl)n3n2)c(-c2ccccc2)c1 [Cpd.4-32, 6-(5-hydroxy-biphenyl-2-yloxy)-3-chloro-[1,2,4]triazolo[4,3-b]pyridazine] | 1 to 6 | 267.7 | 
18 | COc1nccc(C)c1-c1ccc(C(F)(F)F)cc1Oc1ccc2nnc(Cl)n2n1 [Cpd.4-130, 3-chloro-6-((2-(2-methoxy-4-methylpyridin-3-yl))-5-(trifluoromethyl)phenoxy)-[1,2,4]triazolo[4,3-b]pyridazine] | 1 to 6 | 129 to 132 | 
19 | Cc1cccc(-c2cc(F)ccc2Oc2ccc3nnc(Cl)n3n2)c1 [Cpd.4-135, 3-chloro-6-(5-fluoro-3′-methylbiphenyl-2-yloxy)-[1,2,4]triazolo[4,3-b]pyridazine] | 0.1 to 1 | 94.5 to 95.1 | 
20 | Fc1ccc(-c2cc(F)ccc2Oc2ccc3nnc(Cl)n3n2)cc1 [Cpd.4-116, 3-chloro-6-(5,4′-difluorobiphenyl-2-yloxy)-[1,2,4]triazolo[4,3-b]pyridazine] | 0.1 to 1 | 141.1 | 
21 | CCCCNc1ccc(-c2ccccc2)c(Oc2ccc3nnc(Cl)n3n2)c1 [Cpd.4-50, 3-chloro-6-(4-N-butylamino-biphenyl-2-yloxy)-[1,2,4]triazolo[4,3-b]pyridazine] | 0.1 to 1 | 132 to 135 | 
22 | CNc1ccc(Oc2ccc3nnc(Cl)n3n2)c(-c2ccccc2)c1 [Cpd.4-47, 3-chloro-6-(5-methylamino-biphenyl-2-yloxy)-[1,2,4]triazolo[4,3-b]pyridazine] | < 0.1 | 157 to 158 | 
23 | Fc1ccc(Oc2ccc3nnc(C(F)(F)F)n3n2)c(-c2ccccc2)c1 [Cpd.4-141, 3-(trifluoromethyl)-6-(5-fluorobiphenyl-2-yloxy)-[1,2,4]triazolo[4,3-b]pyridazine] | 1 to 6 | 85.3 to 87.7 | 
24 | FC(F)(F)c1ccc(CN2CCOCC2)c(Oc2ccc3nnc(Cl)n3n2)c1 [Cpd.4-122, 3-chloro-6-(2-(morpholinomethyl)-5-(trifluoromethyl)phenoxy)-[1,2,4]triazolo[4,3-b]pyridazine] | 1 to 6 | 55 to 58 | 
25 | COc1ccc(Oc2ccc3nnc(Cl)n3n2)c(-c2ccccc2)c1 [Cpd.4-14, 6-(5-methoxybiphenyl-2-yloxy)-3-chloro-[1,2,4]triazolo[4,3-b]pyridazine] | 0.1 to 1 | 164.6 | 
26 | Fc1ccc(Oc2ccc3nnc(Cl)n3n2)c(-c2cccc(C(F)(F)F)c2)c1 [Cpd.4-148, 3-chloro-6-(5-fluoro-3′-(trifluoromethyl)biphenyl-2-yloxy)-[1,2,4]triazolo[4,3-b]pyridazine] | 1 to 6 | 94.5 to 96.1 | 
27 | Clc1nnc2ccc(Oc3cc(NCCC4CCCCC4)ccc3-c3ccccc3)nn12 [Cpd.4-185, 3-chloro-6-(4-((cyclohexylethyl)amino)biphenyl-2-yloxy)-[1,2,4]triazolo[4,3-b]pyridazine] | 0.1 to 1 | 154 to 159 | 
28 | CN(C)Cc1ccc(-c2ccccc2)c(Oc2ccc3nnc(Cl)n3n2)c1 [Cpd.4-41, 3-chloro-6-(4-N,N-dimethylaminomethyl-biphenyl-2-yloxy)-[1,2,4]triazolo[4,3-b]pyridazine] | 1 to 6 | 141 to 144 | 
29 | COc1cccc(-c2cc(F)c(F)cc2Oc2ccc3nnc(Cl)n3n2)c1 [Cpd.4-152, 3-chloro-6-(4,5-difluoro-3′-methoxybiphenyl-2-yloxy)-[1,2,4]triazolo[4,3-b]pyridazine] | 1 to 6 | 102 | 
30 | Clc1ccc(-c2ccccc2Oc2ccc3nnc(Cl)n3n2)cc1 [Cpd.4-117, 3-chloro-6-(4′-chlorobiphenyl-2-yloxy)-[1,2,4]triazolo[4,3-b]pyridazine] | 0.1 to 1 | 173 | 
31 | CCCN(CCC)c1ccc(Oc2ccc3nnc(Cl)n3n2)c(-c2ccccc2)c1 [Cpd.4-53, 3-chloro-6-(5-dipropylamino-biphenyl-2-yloxy)-[1,2,4]triazolo[4,3-b]pyridazine] | 0.1 to 1 | 106 to 109 | 
32 | Fc1ccc(-c2cc(F)ccc2Oc2ccc3nnc(Cl)n3n2)c(F)c1 [Cpd.4-188, 3-chloro-6-(5,2′,4′-trifluorobiphenyl-2-yloxy)-[1,2,4]triazolo[4,3-b]pyridazine] | 0.1 to 1 | 143.6 | 
33 | CCN(CC)Cc1ccc(-c2ccccc2)c(Oc2ccc3nnc(Cl)n3n2)c1 [Cpd.4-184, 3-chloro-6-(4-diethylaminomethylbiphenyl-2-yloxy)-[1,2,4]triazolo[4,3-b]pyridazine] | 1 to 6 | 110 to 112 | 

From patent US9586963B2 (GENFIT, priority 2011, dated 2017)
